This is an account of results in article PMC9104286, “Characterization of a Cutibacterium acnes Camp Factor 1-Related Peptide as a New TLR-2 Modulator in In Vitro and Ex Vivo Models of Inflammation” (International Journal of Molecular Sciences, 2022).

In assay [1] the test system is C. acnes 6919. The assay can be described thus: Bacterial growth monitored at 620 nm. Format: cell-based, Cutibacterium acnes. Conditions: C. acnes 6919, 5 days; B2 at 1 to 128 μM; antibiotics as positive control; growth at 620 nm. An excerpt:
(§1) As a positive control for growth inhibition, we cultured the bacteria in the presence of the antibiotic ampicillin, doxycycline and clindamycin.
(§2) Bacterial growth was monitored at 620 nm.
(§3) We used 24 strains of C. acnes in the study: strain 6919 (Type IA1) from the American Type Culture Collection (Manassas, VA) and strains isolated from various infections (13 bone and joint infections, 1 case of pleuritis, 1 case of appendicitis, 1 case of pericarditis, 1 case of pneumonia, 3 cutaneous infections, 1 case of bacteremia and 2 ascitic fluid infections). C. acnes strains RON (IA1), TRI (IA2), LIE (IA2), CHR (IA2), GUE (IB) and PIE (IB) were isolated from patients with joint infections. All these strains were kindly provided by Dr. Philippe Morand from the Bacteriology Department at Cochin Hospital, Paris, France. C. acnes strains were grown under anaerobic conditions in liquid or solidified reinforced clostridial medium (RCM; Difco Laboratories, Detroit, MI, USA), in a GasPak™ EZ Anaerobic Container System (Becton Dickinson & Co, Franklin Lakes, NJ, USA) at 37 °C. For routine culture, 100 mL of RCM was used and the bacteria were harvested after 5 days at 37 °C, by centrifugation at 7,000 x g for 10 min and 4 °C. The pellets were pooled and washed in about 30 mL cold sterile phosphate-buffered saline (PBS) (1.5 mM KH2PO4, 2.7 mM Na2HPO4.7H2O, 0.15 M NaCl (pH 7.4)), and were then centrifuged again, as described above. The final bacterial pellet was suspended in sterile PBS (1:10 based on the volume of the culture). Staphylococcus aureus (ATCC #25923) and Staphylococcus epidermidis (ATCC #12228) were grown in tryptic soy broth (TSB) and brain heart infusion (BHI) (Sigma-Aldrich, Saint-Louis, MO, USA) under aerobic conditions at 37 °C.

Assay [2] deals with S. epidermidis. Nature of the assay: Bacterial growth monitored at 620 nm. The class given is cell-based, Staphylococcus epidermidis. The conditions noted are these: 24 h; B2 at 1 to 128 μM; antibiotics as positive control; growth at 620 nm.
From the text: as §1, §2, §3

The test system of assay [3] is S. aureus. The assay can be described thus: Bacterial growth monitored at 620 nm. The class given is cell-based, Staphylococcus aureus. Conditions: 24 h; B2 at 1 to 128 μM; antibiotics as positive control; growth at 620 nm.
From the text: as §1, §2, §3

In assay [4] the test system is human skin explants. The assay can be described thus: Ex vivo human skin explants, induction of proinflammatory molecules by stimuli. The class given is cell-based. The conditions noted are these: skin explants stimulated 18 h, LPS or PGN 5 µg/ml, Luminex, culture supernatant, mean ± SEM, n = 6.

For `C[C@H]1c2cccc(O)c2C(=O)C2=C(O)[C@]3(O)C(=O)C(C(N)=O)=C(O)[C@@H](N(C)C)[C@@H]3[C@@H](O)[C@@H]21` [doxycycline], in assay [1], the “effect on growth of C. acnes (in words)” value is “susceptible”. Moreover, the “effect on growth of S. epidermidis (in words)” value in assay [2] is on record as “susceptible”. The “effect on growth of S. aureus (in words)” value in assay [3] is reported as “susceptible”.

With `CC1(C)S[C@@H]2[C@H](NC(=O)[C@H](N)c3ccccc3)C(=O)N2[C@H]1C(=O)O` [ampicillin], in assay [1], the “effect on growth of C. acnes (in words)” value is “susceptible”. The “effect on growth of S. epidermidis (in words)” value in assay [2] is recorded as “resistant”. Further, the “effect on growth of S. aureus (in words)” value in assay [3] is “susceptible”.

In assay [4], lipopolysaccharide [LPS] registered a GM-CSF levels of 765 ± 30 pg/mL, an IL-1β levels of 392 ± 5.6 pg/mL, an IL-10 production of 10 ± 0.3 pg/mL and a TNF-α production of 22 ± 1.7 pg/mL.

Turning to `CCC[C@@H]1C[C@@H](C(=O)N[C@@H]([C@H]2O[C@H](SC)[C@H](O)[C@@H](O)[C@H]2O)[C@H](C)Cl)N(C)C1` [clindamycin], the “effect on growth of C. acnes (in words)” value in assay [1] was “susceptible”. For the same compound, the “effect on growth of S. epidermidis (in words)” value in assay [2] is “susceptible”. Besides, the “effect on growth of S. aureus (in words)” value in assay [3] is “susceptible”.

In assay [4], peptidoglycan [PGN] displayed a GM-CSF levels of 4733 ± 218 pg/mL, an IL-1β levels of 23 ± 0.8 pg/mL, an IL-10 production of 35 ± 1.4 pg/mL and a TNF-α production of 126 ± 9.3 pg/mL.
